According to patent US6780838B2, “Compounds for treating fungal pathologies of the oral cavity” (priority 2001, dated 2004):
Where no end group is shown, it is not given here.

Key:
[1] = amino acids added to C-terminal α-MSH (11-13); cited from earlier work
C. albicans [2] = test: C. albicans colony forming units (viability) after incubation with peptide; format: cell-based; conditions: for relative potency in reducing C. albicans viability: 10^−4 M melanocortin peptides (FIG. 2 legend: all 10^−6 M); for reducing C. albicans CFU at higher concentrations: up to 10^−4 M, results not shown in the figures
Procedure: C. albicans (clinical isolate) was obtained from the collection of the Department of Microbiology, Ospedale Maggiore di Milano and maintained on Sabouraud's agar slants and periodically transferred to Sabouraud's agar plates and incubated for 48 hours at 28° C. To prepare a stationary growth phase yeast, a colony was taken from the agar plate and transferred into 30 ml Sabouraud-dextrose broth and incubated for 72 hours at 32° C. Cells were centrifuged and suspended in Hank's balanced salt solution (“HBSS”) to the desired concentration. Viability, determined by the exclusion of 0.01% methylene blue, remained >98%.
C. albicans (1×10^6/ml in HBSS) was incubated in the presence of absence or (1-13) (SEQ ID NO: […]) or (11-13) (SEQ ID NO: 1) at concentrations in the range of 10^−15 M to 10^−6 M for 2 hours at 37° C. Cells were then washed in cold distilled water and diluted with HBSS to a concentration of 100 organisms/ml. One-ml aliquots were dispensed on blood agar plates and incubated for 48 hours at 37° C. Organism viability was estimated from the number of colonies formed.
In subsequent experiments using familiar procedures we compared activity of α-MSH (4-10) (SEQ ID NO: 2), (6-13) (SEQ ID NO: 3), (11-13) (SEQ ID NO: 1), ACTH (SEQ ID NO: 5) (1-39), (18-39) (SEQ ID NO: 6) and fluconazole, the latter an established antifungal agent. Melanocortin peptides and fluconazole were tested in concentrations of 10^−6 M to 10^−4 M. There were at least six replicates for each concentration of peptide. […]

C. albicans [3] = test: as above; format: cell-based; conditions: FIG. 1; peptide 10^−12 M to 10^−4 M; 2 hours at 37° C.; p<0.01 vs. control
[4] = test system: cAMP content of C. albicans; test: cAMP content of permeabilized C. albicans (EIA); format: cell-based; conditions: FIG. 5; 10^−6 M, 3 minutes; increase of same order of magnitude as equimolar forskolin
Procedure: C. albicans ([…]), permeabilized with toluene/ethanol, were incubated at 37° C. with continuous shaking in the presence of 10^31 6 M α-MSH(1-13) (SEQ ID NO: 4), (11-13) (SEQ ID NO: 1), forskolin, an agent known to increase intracellular cAMP, or in medium alone. The reaction was stopped after 3 minutes by the addition of ice cold ethanol, cAMP was measured in duplicate using a commercial enzyme immunoassay (EIA) kit (Amersham, United Kingdom) after extraction via the liquid-phase method according to manufacturer's instructions. The effect of forskolin (10^−6 M) on C. albicans colony formation was determined using the same procedure as for α-MSH peptides.

C. albicans [5] = test: C. albicans killing by human neutrophils; format: cell-based; conditions: FIG. 4; 10^−12 M to 10^−4 M; 2 hours at 37° C.; p<0.01
Procedure: Venous blood (20 ml) from health volunteers was anticoagulated with heparin. Neutrophils were isolated using dextran sedimentation and Ficoll-Hypaque (Sigma Chemical Co., St. Louis, […]., USA) centrifugation. Erythrocytes were lysed via hypotonic shock. Neutrophils represented at least 97% of the cell suspension. Cell viability, estimated by trypan blue exclusion, was >98%. Neutrophils were suspended to a final concentration in HBSS. C. albicans (1×^6) were opsonized with human AB serum in a shaking water bath for 30 minutes at 37° C. Organisms were then incubated with neutrophils in medium or in medium with α-MSH (1-13) (SEQ ID NO: 4) or α-MSH(11-13) (SEQ ID NO: 1) in concentrations of 10^31 15 M to 10^31 4 M in a shaking water bath for 2 hours at 37° C. After incubation, the culture tubes were placed on ice stop growth and extracellular organisms were washed twice with centrifugation at 1000×g at 4° C. A 2.5% sodium desoxycholoate solution was added to obtain a suspension of […]. Two 1/100 serial dilutions in HBSS were made to obtain a final suspension of 100 cells/ml. Aliquots of 1 ml were dispensed on blood agar plates and incubated for 48 hours at 37° C. Colony forming units (CFUs) were counted at the end of the incubation period. Experiments were run in triplicate and repeated using blood from 5 different donors.

[6] = stereochemistry analogs, Hiltz et al. 1991; cited from earlier work
[7] = versus α-MSH; cited from earlier work

Q: With “10-13 sequence: α-MSH 10-13, glycine added to the 11-13 sequence (GKPV; ends and bridges not checked; UniProt P01189 147-150, looked up, fragment)” as the substance, how does the “antipyretic potency relative to the 11-13 sequence” value [1] read?
A: slightly decreased the potency

Q: Which results are given for “ACTH fragment (18-39): ACTH fragment (18-39) (CLIP) (RPVLVYPAGEDDEASEAFPLEF)”?
A: relative potency in reducing C. albicans viability (C. albicans [2]; FIG. 2): did not reduce C. albicans viability; reducing C. albicans CFU at higher concentrations (C. albicans [2]): ineffective

Q: Which results are given for “VPK-Ac-CC-Ac-KPV (Ac-CKPV; also: disulfide-linked dimer through Cys)”?
A: C. albicans colony forming units (CFU) (C. albicans [3]): inhibited C. albicans colony formation; effectiveness against microbes compared with α-MSH (11-13) (C. albicans [2]): at least as effective

Q: For “9-13 sequence: α-MSH 9-13 sequence (WGKPV; ends and bridges not checked; UniProt P01189 146-150, looked up, fragment)”, which “antipyretic potency relative to the 11-13 sequence” value [1] is on record?
A: almost devoid of activity

Q: Which “antipyretic potency relative to the 11-13 sequence” value [1] does the source give for “8-13 sequence: α-MSH 8-13 sequence (RWGKPV; ends and bridges not checked; UniProt P01189 145-150, looked up, fragment)” here?
A: greater than that of the 11-13 sequence

Q: For SYSMEHFRWGKPV [α-MSH (1-13)], which “cAMP content in the yeast” value [4] is on record?
A: enhanced

Q: And the “killing of C. albicans by human neutrophils” value (C. albicans [5])?
A: enhanced the killing

Q: And the “C. albicans colony forming units (CFU)” value (C. albicans [3])?
A: greatly reduced

Q: And the “relative potency in reducing C. albicans viability” value (C. albicans [2]; FIG. 2)?
A: most effective

Q: Which “inhibition of CFU” value (C. albicans [2]; FIG. 2, 10^−4 M (FIG. 2 legend: 10^−6 M), p<0.01 vs. control) does the source give for “α-MSH (4-10): core α-MSH sequence (4-10), SEQ ID NO: 2” here?
A: approximately 50%

Q: Which “cAMP content in the yeast” value [4] does the source give for “KPV (Ac-Lys-Pro-Val-NH2) [α-MSH (11-13)]” here?
A: enhanced

Q: What about the “killing of C. albicans by human neutrophils” value (C. albicans [5]) of the same substance?
A: enhanced the killing

Q: And the “C. albicans colony forming units (CFU)” value (C. albicans [3])?
A: greatly reduced

Q: What about the “relative potency in reducing C. albicans viability” value (C. albicans [2]; FIG. 2) of the same substance?
A: most effective

Q: Which “relative potency in reducing C. albicans viability” value (C. albicans [2]; FIG. 2) does the source give for “ACTH (1-39): adrenocortitrophic hormone (1-39) (SYSMEHFRWGKPVGKKRRPVLVYPAGEDDEASEAFPLEF)” here?
A: did not reduce C. albicans viability

Q: And the “reducing C. albicans CFU at higher concentrations” value (C. albicans [2])?
A: ineffective

Q: Which “anti-inflammatory potency/activity relative to the L-form tripeptide α-MSH 11-13” value [6] does the source give for Ac-[D-K^11]-α-MSH 11-13-NH2 here?
A: same general potency

Q: With [Nle^4,D-Phe^7]-α-MSH as the substance, how does the “potency in reducing fever relative to the parent peptide” value [7] read?
A: approximately 10 times

Q: For “HFRWGKPV (Ac-HFRWGKPV-NH2) [α-MSH (6-13)]”, which “relative potency in reducing C. albicans viability” value (C. albicans [2]; FIG. 2) is on record?
A: most effective
